Measurements: US20140360376A1, “RECOVERY OF HIGHER ALCOHOLS FROM DILUTE AQUEOUS SOLUTIONS” (GEVO, INC., priority 2007, published 2014)
Values joined by “and” are separate entries in the source; they are usually repeats but may differ in a detail not shown here. Equal values may be shown once. Read-outs that look alike come from different tables or passages of the source.

Key:
[1] = Enrichment/extraction of i-BuOH from aqueous solution by contact with 2-heptanone; format: physicochemical; settings: 25° C.
[2] = Enrichment/extraction of i-BuOH from aqueous solution by contact with decanol; format: physicochemical; settings: 25° C.
[3] = Enrichment by glucose addition followed by contact with gasoline; format: physicochemical; settings: for Increase of alcohol concentration in the gasoline phase in the presence of glucose: compared with example 3 (no glucose); for Alcohol Wt % in heavy phase / Alcohol Wt % in light phase / Alcohol Da: gasoline, 20% (w/w) glucose, 24° C.; for Alcohol Da: light/heavy phase
Description: (§1) These solutions were then mixed with gasoline. The gasoline used was commercial grade with a 95 octane rating. At equilibrium, phase separation was observed forming an upper alcohol rich phase (light phase) and a lower alcohol lean phase (heavy phase). Both phases were analyzed for alcohol and water content. The distribution coefficient of the alcohol was calculated for each experiment by dividing the alcohol concentration in the light phase by the concentration in the heavy phase. The distribution coefficient for water was calculated accordingly. The Enrichment factor was calculated by dividing the distribution coefficient of alcohol by the distribution coefficient of water. All experiments were carried out at 24° C.

[4] = Enrichment by calcium chloride addition followed by contact with gasoline; format: physicochemical; settings: for Increase of alcohol concentration in the gasoline phase in the presence of calcium chloride: compared with example 3 (no calcium chloride); for Alcohol Wt % in heavy phase / Alcohol Wt % in light phase / Alcohol Da: gasoline, 15% (w/w) calcium chloride, 24° C.; for Alcohol Da: light/heavy phase
Description: as §1, with “observed,” for “observed”, “contents.” for “content.”, “phase.” for “phase. The distribution coefficient for water was calculated accordingly. The Enrichment factor was calculated by dividing the distribution coefficient of alcohol by the distribution coefficient of water.”

[5] = Enrichment of C3-C6 alcohols from aqueous solutions by contact with octane; format: physicochemical; settings: 24° C.
Description: Several aqueous solutions were prepared for each alcohol, differing in their alcohol concentrations, all of which were sub-saturated. […] The phase ratio between the aqueous solution and the solvent differed from one case to the other. Mixing was continued until equilibrium was reached. At equilibrium, phase separation could be observed forming an upper, alcohol-rich phase (light phase) and a lower, alcohol-lean phase (heavy phase). Both phases were analyzed for alcohol and water content. […] The water content of the organic phases was determined by the Karl-Fischer method. These analytical methods were also used for the analyses in the other examples.
The distribution coefficient of the alcohol was calculated for each experiment by dividing the alcohol concentration in the light phase by the alcohol concentration in the heavy phase. Similarly, the distribution coefficient for water was calculated by dividing the water concentration in the light phase by the water concentration in the heavy phase. The enrichment factor was calculated by dividing the distribution coefficient of alcohol by the distribution coefficient of water. In addition, the alcohol to water ratio (w/w) was calculated for the light phase.

[6] = Enrichment of C3-C6 alcohols from aqueous solutions by contact with gasoline; format: physicochemical; settings: 24° C.
Description: The gasoline used was commercial grade with a 95 octane rating. […] Both phases were analyzed for alcohol and water content. The distribution coefficient of the alcohol was calculated for each experiment by dividing the alcohol concentration in the light phase by the concentration in the heavy phase. Similarly, the distribution coefficient for water was calculated by dividing the water concentration in the light phase by the water concentration in the heavy phase. The enrichment factor was calculated by dividing the distribution coefficient of alcohol by the distribution coefficient of water. All experiments were carried out at 24° C.

[7] = for Number of phases: aqueous propanol, 25° C.
Description: The number of liquid phases present in each mixture at 25° C. was noted.

[8] = Enrichment/extraction of i-BuOH from aqueous solution by contact with tri-butyl phosphate; format: physicochemical; settings: 25° C.
[9] = Phase separation of 7% butanol or isobutanol solutions by addition of glucose; format: physicochemical; settings: 7% alcohol, glucose 20% (w/w), 25° C.
Description: (§2) This example illustrates the induction of phase separation of butanol or isobutanol in water solutions by addition of glucose. […] The light and heavy phases were analyzed for alcohol content for each experiment. All experiments were carried out at 25° C. The distribution coefficient was calculated by division of the concentration of butanol in the light phase by the concentration of butanol in the heavy phase.

[10] = Phase separation of 4% butanol or isobutanol solutions by addition of calcium chloride; format: physicochemical; settings: 4% alcohol, calcium chloride 15% (w/w), 25° C.
Description: as §2, with “calcium chloride addition.” for “addition of glucose.”

[11] = Mutual solubility of isobutanol and water as a function of temperature; format: physicochemical; settings: isobutanol-water
Description: First, 20 g of water were mixed with 20 g isobutanol in closed vials at room temperature. The vials were then mixed at 5, 10, 20, 40, 60 or 80° C. The vials were held at the stated temperature while being mixed until equilibrium was established. Then the samples were separated into light and heavy phases while being held at temperature. The samples from the light and the heavy phases were analyzed by HPLC and by Karl-Fischer titration.

[12] = Contact of sub-saturated aqueous isobutanol with 3 Angstrom molecular sieve particles; format: physicochemical; settings: 2 g sub-saturated aqueous isobutanol with 1.5 g of 3 Angstrom molecular sieve particles
Description: This example illustrates the isobutanol enrichment from aqueous isobutanol solutions using molecular sieves to adsorb water. A sub-saturated solution of isobutanol in water was prepared. Two grams of this solution were thoroughly mixed with 1.5 g of 3 Angstrom molecular sieve particles in a vial. After mixing, the vial was left to settle.

[13] = Phase separation of aqueous t-butanol by addition of glucose; format: physicochemical
Description: This example illustrates the induction of phase separation of t-butanol (t-BuOH) in water solution by addition of glucose. An aqueous solution of t-butanol (50% v/v) was prepared at 25° C. and glucose was added to a final concentration of 20% (w/v). […] Both phases were analyzed for t-butanol concentration. The t-BuOH and glucose concentrations in the heavy phase were about 150 g/L and about 45% w/w, respectively. The light phase had about 520 g/L of t-BuOH.

[14] = aqueous i-BuOH heavy phase, equilibrium
[15] = 50% v/v aqueous t-butanol, glucose 20% (w/v), 25° C.

CCCCCC(C)=O [2-Heptanone]
2-Heptanone Wt % in heavy phase [1, 14]: 0.34 Wt % and 0.29 Wt % and 0.40 Wt %

CCCCCCCCCCO [Decanol, decanol]
Decanol Wt % in heavy phase [2, 14]: 0.0043 Wt % and 0.0053 Wt % and 0.0020 Wt %

CCCCCO [PenOH, n-Pentanol]
Increase of alcohol concentration in the gasoline phase in the presence of glucose [3]: greater than 10 fold | Alcohol Wt % in heavy phase [3]: 0.16 Wt % | Alcohol Wt % in light phase [3]: 3.4 Wt % | Alcohol Da [3]: 21 | Increase of alcohol concentration in the gasoline phase in the presence of calcium chloride [4]: greater than 10 fold | Alcohol Wt % in heavy phase [4]: 0.14 Wt % | Alcohol Wt % in light phase [4]: 2.2 Wt % | Alcohol Da [4]: 15

CCCO [PrOH, propanol]
Alcohol Wt % in heavy phase ([5]; equilibrium): 1.9 Wt % and 5.7 Wt % and 0.66 Wt % | Alcohol Wt % in light phase ([5]; equilibrium): 0.07 Wt % and 0.24 Wt % and 0.03 Wt % | Enrichment factor ([5]; Da/Dw): >80 and >100 | Alcohol Wt % in heavy phase ([6]; equilibrium): 5.1 Wt % and 0.61 Wt % and 1.9 Wt % | Alcohol Wt % in light phase ([6]; equilibrium): 0.50 Wt % and 0.08 Wt % and 0.16 Wt % | Enrichment factor ([6]; Da/Dw): >200 and >240 and >160 | Miscibility with water ([7]; any proportion, no additive): fully miscible with water | Number of phases ([7]; CaCl2 9.5%): 1 | Number of phases ([7]; CaCl2 15.1%): 2 | Number of phases ([7]; Glucose 40%): 1 | Number of phases ([7]; Glucose 60%): 2 | Number of phases ([7]; Sucrose 40%): 2 | Number of phases ([7]; no hydrophilic solute): 1

CC(C)CO [i-BuOH, 2-methyl-1-propanol]
i-BuOH Wt % in heavy phase ([8]; equilibrium): 0.22 Wt % and 1.2 Wt % and 1.9 Wt % | i-BuOH Wt % in light phase ([8]; equilibrium): 1.2 Wt % and 5.6 Wt % and 9.8 Wt % | Enrichment factor ([8]; Da/Dw): 76 and 74 and 82 | Distribution coefficient i-BuOH Da ([8]; light/heavy phase): 5.4 and 4.9 and 5.2 | Enrichment factor ([2]; Da/Dw, decanol): 116 and 119 and 99 | i-BuOH Wt % in heavy phase ([2]; decanol, equilibrium): 1.4 Wt % and 2.2 Wt % and 0.30 Wt % | Distribution coefficient i-BuOH Da ([2]; light/heavy phase, decanol): 5.2 and 5.5 and 3.8 | i-BuOH Wt % in heavy phase ([1]; 2-Heptanone, equilibrium): 1.7 Wt % and 2.0 Wt % and 0.44 Wt % | i-BuOH Wt % in light phase ([1]; 2-Heptanone, equilibrium): 5.4 Wt % and 8.4 Wt % and 1.15 Wt % | Enrichment factor ([1]; Da/Dw, 2-Heptanone): 125 and 116 and 155 | Distribution coefficient i-BuOH Da ([1]; light/heavy phase, 2-Heptanone): 3.3 and 4.1 and 2.6 | Increase of alcohol concentration in the gasoline phase in the presence of glucose [3]: 2 fold | Alcohol Wt % in heavy phase [3]: 1.4 Wt % | Alcohol Wt % in light phase [3]: 1.9 Wt % | Alcohol Da [3]: 1.36 | Increase of alcohol concentration in the gasoline phase in the presence of calcium chloride [4]: 4.5 fold | Alcohol Wt % in heavy phase [4]: 0.94 Wt % | Alcohol Wt % in light phase [4]: 3.3 Wt % | Alcohol Da [4]: 3.5 | Alcohol in heavy phase (% w/w) [9]: 5.1 % w/w | Alcohol in light phase (% w/w) [9]: 87 % w/w | Concentration in the light phase compared to the starting solution [9]: approximately 12 fold | Distribution coefficient ([9]; light/heavy phase): 17 | Alcohol in heavy phase (% w/w) [10]: 2.9 % w/w | Alcohol in light phase (% w/w) [10]: 91 % w/w | Concentration in the light phase compared to the starting solution [10]: approximately 23 fold | Distribution coefficient ([10]; light/heavy phase): 31 | Isobutanol Wt % in light phase ([11]; 5° C.): 83.9 Wt % | Isobutanol Wt % in light phase ([11]; 10° C.): 84.0 Wt % | Isobutanol Wt % in light phase ([11]; 20° C.): 83.4 Wt % | Isobutanol Wt % in light phase ([11]; 40° C.): 81.5 Wt % | Isobutanol Wt % in light phase ([11]; 60° C.): 79.1 Wt % | Isobutanol Wt % in light phase ([11]; 80° C.): 76.5 Wt % | Phases observed after settling [12]: two liquid phases

CC(C)(C)O [t-BuOH, 2-methyl-2-propanol]
Enrichment in the light phase compared to the heavy phase (factor) [13, 15]: about 3.5 | t-BuOH concentration in the heavy phase [13, 15]: about 150 g/L | t-BuOH concentration in the light phase [13, 15]: about 520 g/L | Miscibility with water ([13]; any proportion, no additive): fully miscible with water
